Experimental data: paper PMC9867151, “Anti-HIV Potential of Beesioside I Derivatives as Maturation Inhibitors: Synthesis, 3D-QSAR, Molecular Docking and Molecular Dynamics Simulations” (International Journal of Molecular Sciences, 2023)
Structures can show the parent of a compound that is named as a salt. Where two headings read alike, the source gives them in different places.

Columns and labels:
[1] = tested on: HIV-1NL4-3 Nanoluc-sec virus; experiment: Anti-HIV assay: multicycle viral replication in MT4 cells, Nano-Glo luciferase readout; type: cell-based
Experimental: (§1) All of the synthetic derivatives were evaluated for anti-HIV activity by determining the inhibitory effects on virus replication in MT4 lymphocytes infected by HIV-1NL4-3 Nanoluc-sec virus. Cytotoxic activity tests were also carried out on MT4 cells.
In vitro activity was determined by a previously described HIV-1 infection assay. Briefly, a 96-well microtiter plate was used to set up the screening assay using MT4 cells infected by HIV-1NL4-3 Nanoluc-sec virus in the presence of various concentrations of derivatives. The viral replication thus can be monitored by measuring the luciferase activity using the Promega Nano-Glo Luciferase Assay System.

[2] = tested on: HIV-1NL4-3 Nanoluc-sec virus; settings: cited from earlier work
MT4 cells = experiment: CellTiter-Glo Luminescent Cytotoxicity Assay; type: cell-based; settings: MT-4 cells, 3 days
Experimental: as §1
(§2) The cytotoxicity of the synthesized derivatives was determined using the CellTiter-Glo® Luminescent Cytotoxicity Assay (Promega, Madison, WI, USA). MT-4 cells were cultured in the presence of various concentrations of the compounds for 3 days. The percentage of viable cells was measured by following the protocol provided by the manufacturer. The CC50 was derived using the Quest Graph™ IC50 Calculator (https://www.aatbio.com/tools/ic50-calculator, accessed on 7 October 2021).

[3] = CellTiter-Glo Luminescent Cytotoxicity Assay; type: cell-based; settings: human, MT-4 cells (MT4 lymphocytes)
Experimental: as §1, §2

[4] = Human immunodeficiency virus 1, MT4, read-out: PEC50, actual value converted from EC50, 3D-QSAR dataset
[5] = 3D-QSAR dataset, actual values, ref activity data reported from our laboratory
[6] = Human immunodeficiency virus 1, MT4, 3D-QSAR dataset, actual values, entries matching the derivatives tested in this paper (Table 1)

Row | Molecule | EC50 [1, 4] [µM] | EC50 [2, 5] [µM] | other results
1 | CC(=O)OC1C2C3(C)CCC(C(C)(C)O)(OCC24CCC25CC26CCC(OC2OCC(O)C(O)C2O)C(C)(C)C6CCC5C4(C)C1OC(C)=O)O3 (stereo not drawn) [compound 10] | 2.32 | 2.32 | –
2 | CC(C)(CC(=O)OC1CCC23CC24CCC25COC6(C(C)(C)O)CCC(C)(O6)C2C(O)C(O)C5(C)C4CCC3C1(C)C)C(=O)OCc1ccccc1 (stereo not drawn) [compound 7] | 1.52 | – | EC50 [1, 6]: 1.52 µM
3 | CC(=O)OC1C2C3(C)CCC(C(C)(C)O)(OCC24CCC25CC26CCC(OC(=O)CC2(CC(=O)O)CCCC2)C(C)(C)C6CCC5C4(C)C1OC(C)=O)O3 (stereo not drawn) [compound 8] | 1.59 | 1.59 | –
4 | CC(=O)OC1C2C3(C)CCC(C(C)(C)O)(OCC24CCC25CC26CCC(OC(=O)CC(C)(C)C(=O)O)C(C)(C)C6CCC5C4(C)C1OC(C)=O)O3 [DSC, (20S,24S)-15ꞵ,16ꞵ-diacetoxy-18,24; 20,24-diepoxy-9,19-cyclolanostane-3ꞵ,25-diol 3-O-3′,3′-dimethylsuccinate] | – | – | EC50 ([2]; anti-HIV, previous work): 0.025 µM
5 | Cc1cn([C@H]2C[C@H](N=[N+]=[N-])[C@@H](CO)O2)c(=O)[nH]c1=O [AZT, reference compound] | – | – | EC50 ([1]; MT4 cells infected by HIV-1NL4-3 Nanoluc-sec virus, mean +/− SD of 3 tests, read-out: EC50 (μM) NL4-3): 0.024 ± 0.0045 µM; CC50 (MT4 cells): > 0.3 µM
6 | CC12CCC(C(C)(C)O)(OCC34CCC56CC57CCC(OC5OCC(O)C(O)C5O)C(C)(C)C7CCC6C3(C)C(O)C(O)C14)O2 (stereo not drawn) [compound 14] | 7.62 | 7.62 | –
7 | CC(C)(CC(=O)OC1CCC23CC24CCC25COC6(C(C)(C)O)CCC(C)(O6)C2C(O)C(O)C5(C)C4CCC3C1(C)C)C(=O)O (stereo not drawn) [compound 9] | 1.79 | – | EC50 [1, 6]: 1.79 µM
8 | CC(=O)OC1C2C3(C)CCC(C(C)(C)O)(OCC24CCC25CC26CCC(OC(=O)CC(C)(C)C(=O)OCc2ccccc2)C(C)(C)C6CCC5C4(C)C1OC(C)=O)O3 (stereo not drawn) [compound 4] | 0.285 | – | EC50 [1, 6]: 0.285 µM
9 | CC(=O)O[C@H]1[C@@H](OC(C)=O)[C@@]2(C)C3CCC4C(C)(C)[C@@H](OC(=O)CC(C)(C)C(=O)OCc5ccccc5)CC[C@@]45C[C@@]35CC[C@@]23CO[C@@]2(C(C)(C)O)CC[C@](C)(O2)[C@@H]13 (stereo partly drawn) [3b, (20S,24S)-15β,16β-Diacetoxy-18,24;20,24-diepoxy-9,19-cyclolanostane-3β,25-diol-3-O-4′-(benzyloxy) carbonyl-3′,3′-dimethylsuccinate] | – | – | EC50 ([1]; Human immunodeficiency virus 1, NL43, MT4, read-out: EC50 (μM) NL4-3, MT4 cells infected by HIV-1NL4-3 Nanoluc-sec virus, mean +/− SD of 3 tests): 0.28 µM; CC50 at 3 days [3]: > 20 µM
10 | CC(=O)O[C@H]1[C@@H](OC(C)=O)[C@@]2(C)C3CCC4C(C)(C)[C@@H](OC(=O)CC(C)(C)C(=O)OCc5ccccc5)CC[C@@]45C[C@@]35CC[C@@]23CO[C@@]2(C(C)(C)O)CC[C@](C)(O2)[C@@H]13 (stereo partly drawn) (as salt: succinate) [3b, (20S,24S)-15β,16β-Diacetoxy-18,24;20,24-diepoxy-9,19-cyclolanostane-3β,25-diol-3-O-4′-(benzyloxy) carbonyl-3′,3′-dimethylsuccinate] | – | – | melting point: 188 to 190 °C
11 | beesioside I [compound 1] | – | 0.025 | PEC50 ([1]; actual value converted from EC50, 3D-QSAR dataset): 7.602
12 | CC(=O)OC1C(O)C2C3(C)CCC(C(C)(C)O)(OCC24CCC25CC26CCC(OC2OCC(O)C(O)C2O)C(C)(C)C6CCC5C14C)O3 (stereo not drawn) [compound 13] | 4.85 | 4.85 | –
13 | CC(=O)OC1C2C3(C)CCC(C(C)(C)O)(OCC24CCC25CC26CCC(OC(C)=O)C(C)(C)C6CCC5C4(C)C1OC(C)=O)O3 (stereo not drawn) [compound 11] | 2.44 | 2.44 | –
14 | CC(=O)OC1C2C3(C)CCC(C(C)(C)O)(OCC24CCC25CC26CCC(OC(=O)CC(C)C(=O)O)C(C)(C)C6CCC5C4(C)C1OC(C)=O)O3 (stereo not drawn) [compound 6] | 1.11 | 1.11 | –
15 | CC(C)(CC(=O)O[C@H]1CC[C@]23C[C@]24CC[C@]25CO[C@@]6(C(C)(C)O)CC[C@](C)(O6)[C@H]2[C@@H](O)[C@@H](O)[C@@]5(C)C4CCC3C1(C)C)C(=O)O (stereo partly drawn) [3 ^a] | 0.12 | – | –
